According to patent US20110245323A1, “RIG-Like Helicase Innate Immunity Inhibits VEGF-Induced Tissue Responses” (Yale University, priority 2006, published 2011):
Entries after “also recorded” stand apart in the source; their conditions may differ.

What was measured:
Type in all cases: in vivo, mouse
[1] = tested on: CC10-rtTA-VEGF165 transgenic mice; assay: VEGF-induced angiogenesis, anti-CD31 immunohistochemistry and vessel area density; conditions: for VEGF-induced angiogenesis (vascular density, appearance, sprouting): pretreatment starting 1 day before dox, vs vehicle
Experimental: (§1) The CC10-rtTA-VEGF165 transgenic mice used in this study were generated and used as described previously (Lee et al., 2004, Nature Medicine 10:1095-103), which reference is incorporated herein in its entirety. These animals were housed under barrier conditions in the animal facility at Yale University School of Medicine. In these experiments 6-8 week old transgenic (Tg+) animals and their transgene negative littermate controls (Tg−) were randomized to receive water with doxycycline (dox) (0.5 mg/ml) or normal water. Two weeks later they were sacrificed and the VEGF-induced phenotype was evaluated as described below (Lee et al., 2004, Nature Medicine 10:1095-103).
(§2) To define the effects of these agents on the tissue responses induced by VEGF, two experimental procedures were used. In the first, a pretreatment protocol was used. In these experiments the noted innate immunity agonist ([…] unless otherwise indicated) or its vehicle control (PBS) were administered intranasally and aspirated into the lungs of randomized Tg+ and Tg− mice starting one day before the Dox water treatment. The doses were administered to the mice every other day during the 2 week doxyxycline (dox) treatment interval.
(§3) To determine if the innate immunity agonists altered established VEGF-induced tissue responses, a “post treatment” protocol was used in selected experiments. In these experiments the innate immunity agonist was administered 2 days or 14 days after the doxycycline and VEGF-induced responses were evaluated 2 weeks later.
(§4) To define the effects of Poly(I:C) a number of protocols were employed. In most experiments, a pretreatment-2 week protocol was employed. In these experiments, WT and Tg+ mice were treated with Poly(I:C) (30 μg in 50 lambda unless otherwise indicated; Amersham Biosciences, N.J.) or vehicle control via nasal aspiration and transgene activation was accomplished via the administration of dox (0.5 mg/ml) in the animal's drinking water 24 hours later. The Poly(I:C) was administered every other day and the dox was administered continuously for up to 2 weeks.
In selected experiments a pretreatment protocol and shorter treatment interval was employed. In these experiments, WT and Tg+ mice were treated with Poly(I:C) (30 μg/mouse/dose in 50 μl) or vehicle control via nasal aspiration and transgene activation was accomplished with dox 24 hours later. The animals were then randomized to not receive or receive one additional dose of Poly(I:C) 24 hours later and dox was administered continuously during this 2 week interval.
(§5) Lastly, in selected experiments post-transgene activation protocols were employed. In these experiments dox was administered for 2 days or 2 weeks. The Poly(I:C) was then administered via intranasal aspiration every other day for 2 weeks as disclosed elsewhere herein. In selected pre-treatment and post-transgene activation experiments, unmethylated CpG (CpG-B) (Keck Center, Yale University) was also employed at similar doses. At the end of these intervals, assessments of angiogenesis (anti-CD31 immunohistochemistry), vascular permeability (Evan's blue dye extravasation, wet to dry lung weight measurements, BAL protein concentration), BAL and tissue inflammatory cell infiltration and mucus metaplasia (periodic acid-Schiff (PAS) staining, MUC5AC immunoblotting) were undertaken. In all cases experiments were designed to compare Tg− and Tg+ mice on normal water and Tg− and Tg+ mice on dox water.

[2] = tested on: CC10-rtTA-VEGF165 transgenic mice; assay: BAL inflammatory cell recovery, VEGF-induced inflammation
Experimental: as §1, §2, §3, §4, §5
Mice were sacrificed using intraperitoneal ketamine/xylazine injection and the trachea was cannulated and perfused with two 0.9 nil aliquots of cold saline. The cellular contents and BAL fluid were separated by centrifugation, the BAL cell number was quantitated and cell differential was assessed. The BAL fluid was stored in aliquots at −80° C.

[3] = tested on: IFN-α and IFN-β; assay: BAL Type I IFNs by ELISA; conditions: WT (Tg−) and VEGF Tg+ animals
Experimental: ELISA and activity assay kits for IFNa and IFNβ analysis were purchased from PBL Biomedical Laboratories (Piscataway, N.J.). ELISAs for eotaxin/CCL11, MCP-1/CCL2, KC/CXCL1 and MIP-2/CXCL14 were obtained from R&D Systems (Minneapolis, Minn. USA). Each was performed according to the manufacturer's instructions.

[4] = tested on: VEGFR3; assay: VEGF receptor expression on dendritic and endothelial cells, FACS; conditions: Tg+ mice, pretreatment-2 week protocol
Experimental: Cell preparations were obtained from Tg− and Tg+ mice that had been randomized to receive Poly(I:C) or its vehicle control according to the pretreatment-2 week protocol described above. They were then incubated with antibodies against CD45, CD11c, MHCII, CD31, VEGFR1 (R & D Systems), VEGFR2 (Biolegends, San Diego, Calif. USA) or VEGFR3 (R&D Systems). FACS analysis was used to define the levels of receptor expression on dendritic cells (CD45+, CD11c+, MHCII+) and endothelial cells (CD45−, CD31+).

[5] = tested on: CC10-rtTA-VEGF165 transgenic mice; assay: Lung tissue inflammation, histologic analysis; conditions: Tg+ mice, pretreatment, vs vehicle
Experimental: The lungs were removed en bloc as described elsewhere herein, inflated at 25 cm pressure with PBS containing 0.5% low melting point agarose gel, fixed in Streck solution (Streck Laboratories, La Vista, Nebr.), embedded in paraffin, sectioned and stained. Hematoxylin and eosin and PAS stains were performed in the Research Histology Laboratory of the Department of Pathology at the Yale University School of Medicine. Pulmonary hemorrhage was evaluated by quantitating BAL red blood cell number with a Coulter counter (Beckman Coulter).

[6] = tested on: IFNAR1; assay: Poly(I:C) regulation of VEGF responses in IFNAR1 null VEGF Tg+ mice
Text: TLR3^−/−-mice were a gift from Dr. Richard A. Flavell (Yale University), MAVS null mice were a gift from Dr Zijian J. Chen (U of Texas Southwestern) (Sun et al., 2006, Immunity 24:633-642), double stranded RNA-dependent protein kinase null mutant mice (PKR^−/−) were a gift from Dr. Bryan R. G. Williams (Cleveland Clinic Foundation) (Yang et al., 1995, Embo J 14:6095-6106) and IFNAR1 null mice were obtained from Dr. Richard Enelow (Dartmouth). These mice were bred with the VEGF Tg+ mice to generate transgenic mice with wild type (+/+) or null (−/−) TLR3, MAVS, PKR or IFNAR1 loci. Thus, in each given experiment, the effects in transgene negative (Tg−) and transgenic (Tg+) mice with WT and null TLR3, MAVS, PKR or IFNAR1 loci were compared.
as §4, with “weeks. […]” for “weeks.”

[7] = pretreatment, highest dose tested
[8] = Tg+ mice, pretreatment, vs vehicle

## polyinosinic-polycytidylic acid [Poly(I:C)]
[1]; Tg+ mice, given 2 days (48 hours) or 14 days (2 weeks) after transgene activation with dox
  VEGF-induced vascular responses, delayed administration: significant decrease; also recorded: significant inhibition
[1]; Tg+ mice
  VEGF-induced angiogenesis (vascular density, appearance, sprouting): inhibited
[1]; Tg+ mice, listed as poly(I:C)
  VEGF-induced angiogenesis (vascular density, appearance, sprouting): markedly decreased
[1]; VEGF-induced tissue responses, TLR agonist administration, PBS control 43
  Vascularity (%): 28.7%
[1]; pretreatment
  lowest dose with significant inhibition of VEGF-induced angiogenesis: 5 µg
[1]; [7]
  dose with maximal inhibition of VEGF-induced angiogenesis: 30 µg
[1]; shorter treatment interval, 1 dose before dox
  vascular density after as little as 1 dose: significant decrease
[2]; Tg+ mice, given 2 days (48 hours) or 14 days after transgene activation with dox
  VEGF-induced inflammation, delayed administration: significant decrease; also recorded: significant regulation
[2]; Tg+ mice, pretreatment, p<0.05
  recovery of macrophages, eosinophils and lymphocytes during BAL: significantly decreased
[2]; [8]
  BAL neutrophil accumulation: increased
  total recovery of inflammatory cells during BAL / VEGF-induced inflammation: markedly decreased; also recorded: inhibited
[2]; VEGF-induced tissue responses, TLR agonist administration, PBS control 50
  Total cells (×10^4): 22 ×10^4
[2]; pretreatment
  lowest dose with significant alterations of VEGF-induced inflammation: 5 µg
[2]; [7]
  dose with maximal regulation of VEGF-induced inflammation: 30 µg
[3]
  production of IFN-α and IFN-β in BAL: potent stimulator
[4]
  expression of VEGFR3 on dendritic cells and endothelial cells: not
[5]
  inflammatory cell accumulation in lung tissues: lower levels of inflammation
[6]; 30 μg pretreatment, 2 weeks
  ability to inhibit VEGF-induced angiogenesis, edema, inflammation and mucin production in Tg+ mice with null mutations of IFNAR1: significantly decreased
[6]; Tg+ mice lung immunoblot
  ability to inhibit Erk, FAK, Akt and eNOS signaling pathways in mice lacking the IFNAR1 receptor: significantly decreased
